Among the data in PMC9030138, “The Facile Preparation of PBA-GO-CuO-Modified Electrochemical Biosensor Used for the Measurement of α-Amylase Inhibitors’ Activity” (Molecules, 2022) are IC50 values, retold here.

This assay has as its target T1, α-amylase (Sus scrofa, UniProt P00690).
T1 construct: gene AMY2; from porcine pancreas, type VI-B
T1 sequence (P00690 16-511): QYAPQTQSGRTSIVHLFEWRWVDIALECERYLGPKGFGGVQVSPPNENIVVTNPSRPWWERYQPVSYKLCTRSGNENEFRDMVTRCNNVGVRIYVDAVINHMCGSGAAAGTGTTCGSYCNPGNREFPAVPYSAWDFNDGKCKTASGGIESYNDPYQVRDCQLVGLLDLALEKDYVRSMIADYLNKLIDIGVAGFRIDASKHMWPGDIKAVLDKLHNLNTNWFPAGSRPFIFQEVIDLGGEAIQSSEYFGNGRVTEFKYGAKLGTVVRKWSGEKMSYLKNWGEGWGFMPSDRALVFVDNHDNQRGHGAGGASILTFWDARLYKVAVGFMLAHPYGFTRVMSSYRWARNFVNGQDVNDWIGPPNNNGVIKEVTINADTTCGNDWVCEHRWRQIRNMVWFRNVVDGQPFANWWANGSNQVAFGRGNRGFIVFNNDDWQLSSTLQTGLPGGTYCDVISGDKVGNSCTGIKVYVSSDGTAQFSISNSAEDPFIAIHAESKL
Description: electrochemical glucose sensor (PBA-GO-CuO electrode) assay of starch hydrolysis; checked by iodine colorimetric assay. Format: biochemical.

The term IC50 denotes the midpoint of a concentration-inhibition curve. With `O=C(O)c1cc(O)c2c(c1)C(=O)c1cccc(O[C@@H]3O[C@H](CO)[C@@H](O)[C@H](O)[C@H]3O)c1C2=O` [Rhein-8-b-D-glucopyranoside], the IC50 amounted to 39.1 µM.
